# Read-outs that look alike come from different tables or passages of the source.
# What was measured:
# Assay type in all cases: cell-based
# N. catarrhalis 1502 = test: MIC, N. catarrhalis 1502
# B. subtilis = test: MIC, B. subtilis; conditions: Bacillus subtilis
# Ps aeruginosa NCTC 10662 = test: MIC, Ps aeruginosa NCTC 10662
# Ps aeruginosa Dalgleish = test: MIC, Ps aeruginosa Dalgleish; conditions: Ps aeruginosa Dalgleish 10^-2
# S. aureus Russell = test: MIC, S. aureus Russell; conditions: Staphylococcus aureus
# S. marcescens US 32 = test: MIC, S. marcescens US 32; conditions: Serratia marcescens, US32
# P. rettgeri = test: MIC, P. rettgeri; conditions: Providencia rettgeri
# K. aerogenes A = test: MIC, K. aerogenes A; conditions: Klebsiella aerogenes
# E. coli JT 425 = test: MIC, E. coli JT 425; conditions: Escherichia coli, JT425
# P. mirabilis 889 = test: MIC, P. mirabilis 889; conditions: Proteus mirabilis
# E. coli NCTC 10418 = test: MIC, E. coli NCTC 10418; conditions: Escherichia coli, NCTC10418
# P. morganii = test: MIC, P. morganii; conditions: Morganella morganii
# S. aureus Oxford = test: MIC, S. aureus Oxford; conditions: Staphylococcus aureus
# S. pyogenes CN 10 = test: MIC, S. pyogenes CN 10; conditions: Streptococcus pyogenes, CN10
# P. mirabilis C 977 = test: MIC, P. mirabilis C 977; conditions: Proteus mirabilis, C977
# E. cloacae Nl = test: MIC, E. cloacae Nl; conditions: Enterobacter cloacae
# S. faecalis I = test: MIC, S. faecalis I; conditions: Enterococcus faecalis
# E. coli ESS = test: MIC, E. coli ESS; conditions: Escherichia coli
# E. coli JT 4 = test: MIC, E. coli JT 4; conditions: Escherichia coli, JT4
# [1] = Ps aeruginosa NCTC 10662, read-out: MIC
smiles,measurement,setting,value
"CCN1CCN(C(=O)N[C@@H](C(=O)N[C@]2(CO)C(=O)N3C(C(=O)O)=C(COC(C)=O)CS[C@@H]32)c2ccccc2)C(=O)C1=O [Example 1d, Sodium 7β-[2(4-ethyl-2,3-dioxpiperazine-1-carbonylamino)]phenylacetamido-7α-hydroxymethylcephalosporanate]",MIC,N. catarrhalis 1502,0.2 µg/mL
same,MIC,B. subtilis,> 100 µg/mL
same,MIC,Ps aeruginosa NCTC 10662; Ps aeruginosa NCTC 10662 10^-2,> 100 µg/mL
same,MIC,Ps aeruginosa NCTC 10662; [1],> 100 µg/mL
same,MIC,Ps aeruginosa Dalgleish,> 100 µg/mL
same,MIC,S. aureus Russell,> 100 µg/mL
same,MIC,S. marcescens US 32,5 µg/mL
same,MIC,P. rettgeri,10 µg/mL
same,MIC,K. aerogenes A,0.5 µg/mL
same,MIC,E. coli JT 425,2.5 µg/mL
same,MIC,P. mirabilis 889,1 µg/mL
same,MIC,E. coli NCTC 10418,2.5 µg/mL
same,MIC,P. morganii,10 µg/mL
same,MIC,S. aureus Oxford,> 100 µg/mL
same,MIC,S. pyogenes CN 10,100 µg/mL
same,MIC,P. mirabilis C 977,2.5 µg/mL
same,MIC,E. cloacae Nl,10 µg/mL
same,MIC,S. faecalis I,> 100 µg/mL
same,MIC,E. coli ESS,< 0.02 µg/mL
same,MIC,E. coli JT 4,5 µg/mL
"CCN1CCN(C(=O)N[C@@H](C(=O)N[C@]2(CO)C(=O)N3C(C(=O)O)=C(COC(C)=O)CS[C@@H]32)c2ccc(O)cc2)C(=O)C1=O [Example 3b, Sodium 7β-[2-(4-ethyl-2,3-dioxopiperazine-1-carbonylamino)-2-(4-hydroxyphenyl)acetamido]-7α-hydroxymethylcephalosporanate]",MIC,N. catarrhalis 1502,0.5 µg/mL
same,MIC,B. subtilis,> 100 µg/mL
same,MIC,Ps aeruginosa NCTC 10662; Ps aeruginosa NCTC 10662 10^-2,50 µg/mL
same,MIC,Ps aeruginosa NCTC 10662; [1],50 µg/mL
same,MIC,Ps aeruginosa Dalgleish,25 µg/mL
same,MIC,S. aureus Russell,> 100 µg/mL
same,MIC,S. marcescens US 32,5 µg/mL
same,MIC,P. rettgeri,10 µg/mL
same,MIC,K. aerogenes A,0.25 µg/mL
same,MIC,E. coli JT 425,1 µg/mL
same,MIC,P. mirabilis 889,0.5 µg/mL
same,MIC,E. coli NCTC 10418,1 µg/mL
same,MIC,P. morganii,10 µg/mL
same,MIC,S. aureus Oxford,> 100 µg/mL
same,MIC,S. pyogenes CN 10,> 100 µg/mL
same,MIC,P. mirabilis C 977,2.5 µg/mL
same,MIC,E. cloacae Nl,10 µg/mL
same,MIC,S. faecalis I,> 100 µg/mL
same,MIC,E. coli ESS,0.05 µg/mL
same,MIC,E. coli JT 4,2.5 µg/mL
"CCN1CCN(C(=O)N[C@@H](C(=O)N[C@]2(CO)C(=O)N3C(C(=O)O)=C(CSc4nnnn4C)CS[C@@H]32)c2ccccc2)C(=O)C1=O [Example 4, 7β-[2(4-Ethyl-2,3-dioxopiperazine-1-carbonylamino)-2-phenylacetamido]-7α-hydroxymethyl-3-(1-methyl-1H-tetrazol-5-ylthio)methylceph-3-em-4-carboxylic acid]",MIC,Ps aeruginosa NCTC 10662; Ps aeruginosa NCTC 10662 10^-2,> 100 µg/mL
same,MIC,Ps aeruginosa NCTC 10662; [1],> 100 µg/mL
same,MIC,Ps aeruginosa Dalgleish,100 µg/mL
same,MIC,S. marcescens US 32,5 µg/mL
same,MIC,P. rettgeri,25 µg/mL
same,MIC,K. aerogenes A,0.2 µg/mL
same,MIC,E. coli JT 425,1 µg/mL
same,MIC,P. mirabilis 889,2.5 µg/mL
same,MIC,E. coli NCTC 10418,1 µg/mL
same,MIC,P. morganii,10 µg/mL
same,MIC,P. mirabilis C 977,5 µg/mL
same,MIC,E. cloacae Nl,25 µg/mL
same,MIC,E. coli ESS,< 0.02 µg/mL
same,MIC,E. coli JT 4,5 µg/mL
